Results published in US9127085B2, “Compositions of humanized notch fusion proteins and methods of treatment” (THE TRUSTEES OF COLUMBIA UNIVERSITY IN THE CITY OF NEW YORK, priority 2007, dated 2015).
“Also recorded” adds a separate entry of the source.

Legend:
[1] = test system: Ad-Notch4 transduced HUVEC; assay: Endothelial co-culture morphogenesis assay (Notch4-induced extensions on fibrin gel); type: cell-based, human; conditions: 200 nM compound E vs vehicle
Procedure: HUVEC morphogenesis was assessed as described (11), modified by adding co-culturing of Ad-Notch4 transduced HUVEC with Notch1 decoy- or Fc-HUVEC transfectants. Ad-GFP at 10 m.o.i. was co-transduced in HUVECs with Ad-LacZ or Ad-Notch4 at 30 m.o.i and 48 h later seeded on fibrin gels (24-well plates, 1.5×10^4 cells/well). Stable HUVEC-mock (HUVEC-X), HUVEC-Fc, or HUVEC-N1ECDFc transfectants were seeded at 1.35×10^5 cells/well, and vehicle or 200 nM compound E added 3 h later. Seven days later, HUVEC morphogenesis was calculated as the number of GFP-positive cells with processes compared to total GFP-positive cells/field.

C2C12 cells = assay: C2C12 myoblast differentiation; type: cell-based; conditions: C2C12 transduced with Foxo1-ADA
Procedure: FIGS. 38A-38C These Figures show the quantitative analysis of C2C12 differentiation. […] Results from differentiation experiments were analyzed by scoring the number of Myosin-immunostained cells as percentage of all DAPI-positive cells. […] We carried out reporter gene assays using the canonical Foxo1-responsive Igfbp1 promoter (left panel) and the Hes1 promoter (right panel) in cells co-transfected with Foxo1-ADA or DBD-Foxo1ADA. […] An asterisk indicates P<0.01 by ANOVA.
C2C12 cells were differentiated as described (3, 4). Foxo1-ADA, Notch1-IC, Jagged1, Csl and Notch decoy adenoviral and mammalian expression vectors have been described (36, 51). We generated retroviruses expressing Foxo1-ADA and Notch1-IC using the pQCXIH vector. To generate Notch decoy (pAdlox Notch1ECD-Fc), the extracellular domain of Notch1(bp 241-4229, GenBank accession# X57405) was fused in frame with human IgG Fc tag and cloned into pAdlox. Retroviral supernatant was produced from cells transiently co-transfected with pVSV-G vector and designated pQCXIH vector into GP2-293 cells (BD Bioscience). To generate the DNA binding-deficient Foxo1, we replaced N208 and H212 with alanine and arginine, respectively, using QuikChange Mutagenesis Kit (Stratagene). The mutations were then cloned in the backbone of the Foxo1-ADA mutant. […]

Ad-N1IC-transduced HUVEC = assay: Notch (Ad-N1IC)-induced HUVEC budding; type: cell-based, human
Procedure: HUVEC were transduced with either Ad-LacZ or Ad-N1IC at 40 MOI. FIGS. 23A-23C show the effect of inhibitors for receptor tyrosine kinases on Notch-induced HUVEC budding. FIG. 23A is a photograph of budding of Ad-N1IC-transduced HUVEC treated with PD166866, ZD1893 at 1 μM and SU5416 at 0.5 μM. […] FIGS. 23D-E show induction of Flt-1 expression in Ad-N1IC-transduced HUVEC. […] FIGS. 23F-G show promotion of Notch-induced HUVEC budding with PlGF stimulation. Ad-N1IC-transduced HUVEC were cultured on collagen gel with SFM, instead of complete medium, in the absence or presence of 50 ng/ml PlGF. […] FIGS. 23H-I show the effect of Flt-1 siRNA transfection on Flt1 expression. Ad-N1IC-transduced HUVEC were transfected with 200 pmol of either control (CT) or Flt-1 siRNA. […] Ad-N1IC-transduced HUVEC were transfected with either 100 or 200 pmol of siRNA and cultured on collagen gel for 2 days.
Either Ad-LacZ or Ad-N1IC-HUVEC at a MOI of 40 pfu/cell were cultured on collagen gel for 5 days in the absence or presence of GM6001 at 50 μm.
For making collagen gels, an ice-cold solution of porcine type I collagen (Nitta gelatin, Tokyo, Japan) was mixed with 10×RPMI1640 medium and neutralization buffer at the ratio of 8:1:1. 400 μl aliquots of collagen gel were then added to 24-well plates and allowed to gel for at least 1 hour at 37° C. Following adenoviral infection (above), HUVEC was harvested and plated at 1.3×10^5 cells per well onto the top of the collagen gel in 24-well plates in 0.8 ml of EGM2 medium. HUVEC became nearly confluent 48 hours after plating. After seeding, medium was changed every 2 days for 1 week. Sprouting was observed and photographs taken after 8 days with an Olympus digital camera mounted to a microscope. For quantification of the number of sprouts, 5 fields per each well were randomly selected and sprouting was counted under microscopy in a blind manner by two investigators.

[2] = test system: Jagged1 and Dll1 expression in Mm5MT-FGF4 cells; assay: Quantitative RT-PCR of Notch ligands in Mm5MT-FGF4 transfectants; type: cell-based, mouse; conditions: 1 μm PD166866, 7 days
Procedure: Mm5MT transfectants were cultured 7 days with vehicle or 1 μm PD166866 (inhibitor of FGF receptor-kinase), total RNA isolated (RNeasy mini-kit, Qiagen, Valencia, Calif.), and first-strand cDNA synthesized (SuperScript™ First-Strand Synthesis System, Invitrogen). Quantitative RT-PCR for β-actin, FGF4, Jagged1, Dll1, and Dll4 (SYBER Green PCR Master Mix, 7300 Real Time PCR; Applied Biosystems, Foster City, Calif.) was performed in triplicate and values normalized for β-actin. Values are shown for fold induction compared to controls (primer sequences available on request).

[3] = test system: retinal neovascularization; conditions: intravitreal injection; hypoxic mouse model; cited from earlier work
[4] = test system: VEGF induced retinal microvascular permeability and vasoconstriction; conditions: subcutaneous injection; diabetic rat model; cited from earlier work
[5] = test system: CBF1 promoter activity in Ad-VEGF-infected HUVEC; assay: VEGF-induced Notch signaling, CBF1 (CSL) promoter reporter in HUVEC; type: cell-based, human; conditions: SU5416 treatment of Ad-VEGF-transduced HUVEC
Procedure: To determine VEGF-induced Notch signaling, HUVEC which were infected with adenovirus were used. HUVEC plated 1-day prior in 6 well plates at 8.0×10^5 were infected with either Ad-LacZ as control or Ad-VEGF at indicated m.o.i. in the presence or absence of Ad-N1ECD/Fc. Two days after infection, infected HUVEC were re-seeded into 24-well plate at 1.5×10^5 cell in triplicate and cultured for 24 hours, and then transfected with 12.5 ng pRL-SV40 (Promega) and 137.5 ng pGA981-6 using Effectene transfection reagent (Qiagen). Cells were harvested either 1 or 2 days post-transfection and luciferase activity was determined by using the Dual-Luciferase® Reporter Assay System (Promega).
One can measure Notch signaling function by measuring transcriptional activity of CBF1 promoter, which is activated by binding of Notch-IC to CBF1. We measured CBF1 promoter activity in HUVEC which was infected with adenovirus encoding VEGF-165 at different MOI (FIG. 6). Induction of CBF1 promoter was clearly detected in Ad-VEGF-infected HUVEC, compared to Ad-LacZ-infected cells in the MOI dependent manner. […] Thus VEGF induced Notch signaling activity.

[6] = Ad-N1IC at 40 MOI, receptor tyrosine kinase inhibitors at 1 μM

In the case of `C[C@H](NC(=O)Cc1cc(F)cc(F)c1)C(=O)N[C@H]1N=C(c2ccccc2)c2ccccc2N(C)C1=O` [Compound E], the “Notch4-induced HUVEC extensions” value ([1]; p<0.0001) is reported as “clearly inhibited extensions”, the “Notch4-induced HUVEC extensions” value ([1]; p<0.0001, listed as compound E) is reported as “blocks Notch4-induced extensions” and the “rescue of Foxo1-ADA inhibition of myoblast differentiation” value (C2C12 cells) is reported as “also rescued Foxo1-ADA inhibition of myoblast differentiation”.

With `CNC(=O)[C@H](Cc1c[nH]c2ccccc12)NC(=O)[C@@H](CC(=O)NO)CC(C)C` [GM6001] the “budding of Ad-N1IC-HUVEC” value (Ad-N1IC-transduced HUVEC; GM6001 at 50 μm, 5 days, collagen and fibrin gel) was “clearly decreased budding of Ad-N1IC-HUVEC”.

With `COc1cc(OC)cc(-c2cc3cnc(N)nc3nc2NC(=O)NC(C)(C)C)c1` [PD166866] the “FGF4-induced Jagged1 and Dll1 expression” value [2] was “suppressed induction of both Jagged1 and Dll1; also recorded: reduction of Notch ligand expression” and the “budding of Ad-N1IC-HUVEC” value (Ad-N1IC-transduced HUVEC; [6]) was “Neither PD166866 or ZD1893 affected budding”.

In the case of `Clc1ccc(Nc2nnc(Cc3ccncc3)c3ccccc23)cc1` [PTK/ZK], the retinal neovascularization [3] is given as “reduces retinal neovascularization”.

In the case of `Cc1cc(C)c(/C=C2\C(=O)Nc3ccccc32)[nH]1` [SU5416], the “VEGF induced retinal microvascular permeability and vasoconstriction” value [4] is listed as “suppresses VEGF induced retinal microvascular permeability and vasoconstriction”, the “VEGF-induced CSL-luciferase reporter activity” value [5] is listed as “decreased VEGF-induced CSL-luciferase reporter activity” and the “budding of Ad-N1IC-HUVEC” value (Ad-N1IC-transduced HUVEC; [6]) is listed as “clearly inhibited”. The “viability of Ad-N1IC-HUVEC (dose-dependency of SU5416)” value (Ad-N1IC-transduced HUVEC; lower concentrations of SU5416) was “less reduction of viability at lower concentrations”.

B1: PlGF: a selective ligand for Flt1 (protein, UniProt P49763 19-221, looked up)
Placenta growth factor: LPAVPPQQWALSAGNGSSEVEVVPFQEVWGRSYCRALERLVDVVSEYPSEVEHMFSPSCVSLLRCTGCCGDENLHCVPVETANVTMQLLKIRSGDRPSYVELTFSQHVRCECRHSPGRQSPDMPGDFRADAPSFLPPRRSLPMLFRMEWGCALTGSQSAVWPSSPVPEEIPRMHPGRNGKKQQRKPLREKMKPERCGDAVPRR
With B1 the “increase in HUVEC buds containing multiple filopodia” value (Ad-N1IC-transduced HUVEC; 50 ng/ml PlGF, SFM) was 250% and the “increase in number of Ad-N1IC-HUVEC buds” value (Ad-N1IC-transduced HUVEC; 50 ng/ml PlGF, SFM, compared to the absence of PlGF) was 150%.
